Measured values as given in patent US9572788B2, “Cell permeable inhibitors of anaphase promoting complex” (President and Fellows of Harvard College, priority 2014, dated 2017).

What was measured:
[1] = system: HeLa H2B-GFP cells; assay: Emi1 knockdown and proTAME rescue; assay type: cell-based, human; settings: 12 μM
Experimental: HeLa H2B-GFP cells were plated in glass-bottom 24-well plates at 20% confluence one day prior to the experiment. Cells were transfected with a pool of Emi1 siRNA (Dharmacon M-012434-01, 5′-[…]-3′ (SEQ ID NO: 4); 5′-[…]-3′ (SEQ ID NO: 5); 5′-[…]-3′ (SEQ ID NO: 6); 5′-[…]-3′ (SEQ ID NO: 7)) or Control#3 siRNA (described above) at 18.5 nM with DharmaFect3. After 24 h, cells were treated with 0.06% DMSO or 12 μM proTAME. Live cell imaging was set up as described above.

[2] = ProTAME activation analysis (LC/MS) in extract; assay type: in vitro ADME; settings: 50 μM in interphase Xenopus extract
Experimental: ProTAME was added to interphase Xenopus extract at 50 μM or cell growth media at 20 μM. For interphase extract, 800 μl of sample was collected at 0 min, 10 min, 20 min and 30 min after addition of proTAME and diluted to 8 ml with XB. For cell culture, approximately 800,000 cells were collected at 1 h, 2 h and 3 h after addition of proTAME and lysed in 400 μl lysis buffer as described above and subsequently diluted to 4 ml with lysis buffer. The diluted extract or cell lysate was extracted with 1.5 volume of ethyl acetate. The extracts were dried in vacuo and the dry extracts were resuspended in 200 μl of methanol for LC/MS analysis. LC/MS data were obtained using an Agilent series 1200 LC/6130 MS system with a reversed-phase C18 column (Phenomenex Luna C18(2), 4.6 mm×100 mm, 5 μm) and a CH3CN/H2O gradient solvent system beginning with 10% aqueous CH3CN and ending at 100% CH3CN at 20 min. 10 μl of each sample was injected for each analysis.

[3] = system: U2OS-H2B-GFP cells; assay: Fluorescence live cell imaging with survival (Cox) analysis, U2OS; assay type: cell-based, human; settings: proTAME 12 μM
Experimental: Mitotic duration and cell fate were determined by manual inspection of the movies and plotted as Kaplan-Meier curves. The hatch marks on the Kaplan-Meier curved indicate mitotic duration endpoints of censored cells. Includes the combined results of five independent experiments. […] Pairwise comparison between proTAME and proTAME+apcin-M tested using a Cox proportional hazards model stratified by date, using data from only the experimental blocks in which both proTAME and proTAME+apcin were tested.
Movies were manually analyzed using Nikon Elements software or Image J.
Plates were inserted into a covered chamber supplied with humidified 5% CO2 and mounted onto a motorized microscope stage (Prior Scientific). […] A Hamamatsu ORCA cooled CCD camera collected the images with 2×2 binning using Nikon Elements software (version 3.0). Movies were manually analyzed using Nikon Elements software or ImageJ. Mitotic duration was defined as the time from nuclear envelope breakdown until anaphase, in the case of normal mitosis, or until exit from prolonged mitosis as indicated by cytoplasmic blebbing accompanied by changes in chromatin as detected by H2B-GFP.
The Cox proportional hazards model is a semiparameteric approach to modeling time-to-event data, in which covariates are assumed to have constant proportional effects over time relative to a baseline hazard function that can take any form. In this case, stratification on “person” (the individual who analyzed the movie) and “date” (the date the assay was run) allow the baseline hazard function to differ across experimental blocks, but assume a fixed effect of treatment across experimental blocks. The model is thus: hi(t|Z=j)=hj(t)exp(β1×apcini+β2×apcinMi+β3×proTAMEi+β4×proTAMEi:apcinMi+β5×proTAMEi:apcini), j=1 . . . […] This model was fit separately to cells treated with control siRNA or Mad2 siRNA. All statistical analysis was carried out in R 3.0.0 using the functions available as part of the survival package.

[4] = system: hTERT-RPE1 H2B-GFP cells; assay: Live imaging of mitotic duration in hTERT-RPE1 H2B-GFP cells; assay type: cell-based, human
Experimental: FIG. 18A is a graph and table showing that proTAME induces a mitotic delay in hTERT-RPE1 H2B-GFP cells. Asynchronous hTERT-RPE1 H2B-GFP cells were treated with 0.06% DMSO, 6 μM proTAME or 12 μM proAAME. Cells were imaged at 12 min interval. Cumulative frequency curves of mitotic duration and cell fate distribution are shown.
The imaging plate was mounted onto a motorized stage (Prior ProScan II) on a Nikon TE2000E PFS inverted microscope fitted with an incubation chamber maintained at 37° C. and supplied with 5% CO2. A 20× Plan Apo 0.75 NA or 40× Plan Fluor 0.75 NA objective lens was used as indicated and images were collected with 2×2 binning. DIC or GFP fluorescent images were taken every 12 min (unless otherwise specified) for 36 h with a Hamamatsu ORCA cooled CCD camera and Nikon Elements Software. TIFF files of each image were exported from Elements and used to build stacks and Quicktime movies with Metamorph imaging software (Molecular Devices). For manual analysis, mitotic duration is counted as the time between the first frame of chromosome condensation and the frame of chromosome segregation (anaphase) or decondensation (mitotic exit in the presence of nocodazole) or cell death (chromosomes shrinking to a small bright dot).

[5] = Fig S4A, asynchronous hTERT-RPE1 cells, proAAME 12 μM, proTAME 6 μM

COC(=O)[C@H](CCCN/C(=N\C(=O)OCOC(=O)Cc1ccccc1)NC(=O)OCOC(=O)Cc1ccccc1)NS(=O)(=O)c1ccc(C)cc1 [proTAME]
Rescue of mitotic entry defect in Emi1-depleted cells [1]: substantially rescued the mitotic entry defect caused by depletion of Emi1 | Conversion of prodrug to TAME [2]: rapidly converted to TAME | Median mitotic duration ([3]; Table 7, apcin or apcin-M 25 μM): 180 | % rate of mitotic exit ([3]; relative to DMSO control, Cox model, apcin/apcin-M 25 μM): 3.63% | Average mitotic duration [4, 5]: 819.0 min | Median mitotic duration [4, 5]: 522 min | Median mitotic duration ([4]; asynchronous hTERT-RPE1, 6 μM): over 8 h
